The text below walks through data of patent publication US20230313199A1, “TARGET FOR MODULATING BODY MASS” (Massachusetts Institute of Technology, priority 2020, published 2023).

The test system of test [1] is THP-1 cells. The test is described as follows: Mitochondrial membrane potential by TMRE and flow cytometry. Format: cell-based, human. Particulars: heme 1 hour, reduced to similar levels as in 7CKO cells. How it is done:
Mitochondrial membrane potential was measured using Abcam kit (Catalog No. ab113852). Briefly, BMDM, THP-1 and 7CKO cells were not treated or treated with […] for 1 hour. The cells were incubated with mitochondrial membrane potential indicator, 200 nM TMRE (tetramethylrhodamine, ethyl ester) for 20 minutes. The mean fluorescence intensity of TMRE were determined by flow cytometry.

For a further test, the target named is T1, NTD of human MFSD7C (Homo sapiens, UniProt Q9UPI3).
T1 construct: Plasmid harboring GST-His-tag-SUMO-NTD (amino acids 1-84); GST-His-tag-SUMO (N, cleaved yes); made in house; host or cells: Escherichia coli Lemo21(DE3)
T1 sequence (Q9UPI3 1-84): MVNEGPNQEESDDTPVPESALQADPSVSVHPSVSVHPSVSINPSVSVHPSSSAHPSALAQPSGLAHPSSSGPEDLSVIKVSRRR
The test is described as follows: Gel-filtration assay of NTD and heme. Format: binding. To be noted: Superdex 75; absorbance 380 nm, 415 nm and 230 nm. How it is done:
Gel-filtration assay. Purified NTD (200 μM) was incubated with freshly prepared heme (150 μM) in a 1 mL reaction containing 5% DMSO, 25 mM HEPES-NaOH pH 7.8, and 10 mM NaCl. The solution was run over Superdex 75 (24 mL) gel-filtration column at 0.3 mL/min rate using AKTA-FPLC. Absorbance was monitored at 230, 380, and 415 nm. 2 mL injection volume was subtracted from the final elution volume. Solution containing dissolved hemin in the reaction buffer without the NTD protein aggregated on top of the Superdex 75 column, thus this control was avoided in our experiments.

A further test concerns Serca2b^−/− THP-1 cells. The test is described as follows: Thermogenesis by FPT in Serca2b knockout THP-1 cells. It counts as cell-based, human. Particulars: 40 μM heme 1 hour, FPT flow cytometry. How it is done: FIGS. 5A-5F show MFSD7C and heme regulate thermogenesis through SERCA2b in THP-1 cells. […] 30 hours later, MG132 was added into half of the cells and the other half was not treated. Another 35 hours later, some cells were treated with 40 μM heme for 1 hour before lysis. Cell lysates were immunoprecipitated with anti-FLAG antibody, and eluted, followed by anti-HA immunoprecipitation and elution. Total cell lysate and elute were subjected to Western blotting and probed with anti-SERCA2b or anti-MFSD7C antibodies. Shown are representative data from one of three experiments. […] 24 hrs later, cells were either not treated or treated with 10 μM MG132 for either 6 or 12 hours. The cells were lysed and subjected to FLAG pull-down and blotted with anti-MFSD7C, anti-SERCA2b and anti-ubiquitin antibodies. Shown are representative data from one of three experiments. […] Parental THP-1 cells were either not treated or treated with heme before lysis. Shown are representative data from one of four experiments. […] Shown are representative data from one of two experiments. […] Cells were washed and treated with 40 μM heme for one hour before flow cytometry. Representative FPT histograms from one of three experiments are shown. […]
In the second approach, we used fluorescent polymeric thermometer (FPT), which we synthesized in-house (see above). […] Then the fluorescence intensities were determined by a flow cytometer.

The test system of a further test is 4B8^FL cells. Briefly: MMP (JC-10 kit, flow cytometry) in 4B8 cells complemented with full length MFSD7C. Particulars: heme 1 hour. It counts as cell-based, human. How it is done:
FIGS. 4A-4H show NTD of MFSD7C mediates heme effect on mitochondrial respiration. FIGS. 4A-4C show comparison of basal OCR (FIG. 4A), maximal OCR (FIG. 4B) and ECAR (FIG. 4C) of THP-1, 4B8, and 4B8^FL and 4B8^ΔN cells treated with vehicle or heme for 1 hour (n=18 separate experiments). […] Cells were incubated with FPT for 6 hrs, washed and reseeded in poly-lysine coated glass bottom dishes. After cells attached to the glass, medium containing 40 μM heme was added. Cells in the same field were imaged immediately and again 1 hour later. Relative FPT fluorescent intensities, normalized to THP-1, from three experiments are shown. (n=3 independent experiments). […] THP-1 cells were co-cultured with 4B8, 4B8^FL, or 4B8^ΔN in FPT solution for 6 hrs, washed and reseeded in poly-lysine coated glass bottom dishes. Cells were imaged by confocal laser-scanning microscopy. […] Representative images from three experiments are shown. Scale bar: 10 μm. […] THP-1, 4B8, 4B8^FL and 4B8^ΔN cells were treated with vehicle or heme for 1 hour and MMP was measured by using JC-10 Mitochondrial Membrane Potential Assay Kit followed by flow cytometry. […] Shown are representative Western blotting data (FIG. 4G) and quantification of band intensities from n=3 independent experiments (FIG. 4H). P-values were calculated using two-way ANOVA (*p<0.05, **p<0.01, ***p<0.005). […]
On the technique in general: In flow cytometry, cells or beads pass a laser one at a time.

A further test has as its system MCF7 cells. Briefly: Oxygen consumption rate, parental MCF7 cells. It counts as cell-based, human. Particulars: 40 μM heme for 1 hour.
The subject of test [2] is THP-1 cells. The test is described as follows: Cellular energy charge (ATP/ADP ratio). Format: cell-based, human. Particulars: heme 1 hour, reduced to similar levels as in 7CKO cells. How it is done:
Measurement of cellular energy charge (ATP/ADP ratio). ATP/ADP ratio was measured using ADP Assay Kit (Sigma Catalog No. MAK133-1KT) following manufacturer's protocol. For THP-1 cells, 24 hours before the experiment, cells were resuspended in fresh complete RPMI media. For heme treatment, 1 mL of treated cell suspension was incubated for 1 hour at 37° C. cell culture incubator, then centrifuged and resuspended in 1 mL of fresh warm complete RPMI media in order to wash off excess heme, which interferes with the assays. […] per well (approximately 10,000 cells total) was placed in a white 96-well plate, lysed with 90 μL of ATP Buffer, and incubated with gentle shaking at room temperature for 10 min. Relative ATP amount was directly measured using luminescence. Then, 5 μL of ADP Enzyme mix was added to each well and the plate was incubated with light shaking for 3 minutes. Relative amount of ADP+ATP was measured using luminescence. ADP amount was calculated by subtracting the ATP signal from ADP+ATP signal. To get ATP/ADP ratio, ATP signal was divided by the calculated ADP signal. For BMDMs, the assay was performed following the same protocol but using 20,000 cells per well.

As for `C=CC1=C(C)c2cc3[n-]c(cc4[n-]c(cc5nc(cc1n2)C(C)=C5C=C)c(C)c4CCC(=O)O)c(CCC(=O)O)c3C.[Fe+2]` [heme], the results for the MMP result with THP-1 cells [1] and with 4B8^FL cells were “reduced” and “decreased”, respectively. For the same compound, the “co-elution in gel-filtration chromatography” value on NTD of human MFSD7C is “co-eluted with the NTD”. The “thermogenesis following heme treatment” value in the test with Serca2b^−/− THP-1 cells is reported as “significantly diminished”. The OCR result with MCF7 cells is on record as “significantly stimulated”. Further, the ATP/ADP ratio result in the test with THP-1 cells [2] is “reduced”.
